Measurements reported in patent publication US7534915B2, “Non-symmetrical gelling agent” (Applied Nanosystems B.V., priority 2003, dated 2009).

Assay: Gel test (vial inversion)
Assay type: physicochemical
Experimental: A weighed amount of solid was dissolved in 0.5 or 1 ml of the solvent in a closed 2.0 ml vial using a heating gun or a heating block and subsequently slowly cooled to room temperature by standing in the air. Gelation was determined by turning the vial upside down and gentle shaking. If no flow of the mass was observed, the mass was defined to be a gel. Alternatively, a weighed amount of solid was dissolved in 1 mL of solvent by the addition of acid or base. The subsequent addition of base or acid then gave gelation. Alternatively, a weighed amount of solid was dissolved in a small amount of solvent. The subsequent addition of a large amount of non-solvent then gave gelation. Alternatively, the solution of gelator/thickener was added to the non-solvent, resulting in gelation. Alternatively, a weighed amount of solid was mixed with 1 mL of solvent by sonication. After stopping the sonication, gelation occurred. Alternatively a weighed amount of solid was mixed with 1 mL of solvent by brief vortexing after which gelation occurred. Alternatively a weighed amount of solid was mixed with 1 mL of solvent after which gelation occurred.

For `COC(=O)[C@H](Cc1ccccc1)NC(=O)[C@H](Cc1ccccc1)NC(=O)[C@@H]1C[C@H](C(=O)O)C[C@H](C(=O)O)C1` [Compound 22, CHex(AmPheAmPheOMe)(COOH)2], the Gel test (toluene) was “gel”.
In the case of `CNC(=O)[C@H](Cc1ccccc1)NC(=O)[C@@H]1C[C@H](C(=O)N[C@@H](Cc2ccccc2)C(=O)NC)C[C@H](C(=O)OCc2ccccc2)C1` [Compound 33, CHex(AmPheAmMe)2(COOBn)], the Gel test (DMSO) was “turbid gel”.
In the case of `COc1ccc(NC(=O)[C@H](Cc2ccccc2)NC(=O)[C@@H]2C[C@H](C(=O)NCCOCCO)C[C@H](C(=O)NCCOCCO)C2)cc1` [Compound 10, CHex(AmPhe-AmPh-OMe)(AmEtOEtOH)2], the Gel test (3 mg/mL in H2O) was “clear gel”.
For `COC(=O)[C@H](Cc1ccccc1)NC(=O)[C@@H]1C[C@H](C(=O)N[C@@H](Cc2ccccc2)C(=O)OC)C[C@H](C(=O)OCc2ccccc2)C1` [Compound 29, CHex(AmPhe-OMe)2(OBn)], the Gel test (EtOH) was “gel”, the Gel test (MeOH) was “gel” and the Gel test (olive oil) was “gel”. For the same molecule, the Gel test (toluene) was “gel”.
For `O=C(NCCOCCO)[C@@H]1C[C@H](C(=O)NCCOCCO)C[C@H](C(=O)N[C@@H](Cc2ccccc2)C(=O)NCc2ccccc2)C1` [Compound 8, CHex(AmPhe-AmBn)(AmEtOEtOtH)2], the Gel test (1 mg/mL in H2O) was “clear gel (thixotropic)”, the Gel test (EtOH) was “gel” and the Gel test (H2O/PG mixtures) was “gel”. The Gel test (H2O/t-BuOH (TBA/H2O) mixtures) was “gel”, the Gel test (MeCN) was “gel” and the Gel test (PEG 400 (printed PEG for compound 20)) was “gel”. For the same molecule, the Gelation of emulsion (hydrogel 2 mg/ml + olive oil 200 μL, vortexed five seconds) was “gelated emulsion”, the Gel test (olive oil) was “weak gel” and the Gel test (propylene glycol (PG)) was “gel”. For the same molecule, the Gel test (t-BuOH) was “gel”.
With `O=C(NCCOCCO)[C@@H]1C[C@H](C(=O)NCCOCCO)C[C@H](C(=O)N[C@@H](Cc2ccccc2)C(=O)NCCc2ccccc2)C1` [Compound 26, CHex(AmPheAmEtPh)(AmEtOEtOH)2] the Gel test (H2O, concentration not given) was “gel (thixotropic)”, the Gel test (H2O/PG mixtures) was “gel” and the Gel test (H2O/t-BuOH (TBA/H2O) mixtures) was “gel”. For the same molecule, the Gel test (propylene glycol (PG)) was “gel” and the Gel test (t-BuOH) was “gel”.
In the case of `COC(=O)[C@H](Cc1ccccc1)NC(=O)[C@@H]1C[C@H](C(=O)O)C[C@H](C(=O)N[C@@H](Cc2ccccc2)C(=O)OC)C1` [Compound 30, CHex(AmPhe-OMe)2(COOH)], the Gel test (3 mg/mL in H2O) was “clear gel”, the Gel test (EtOH/H2O mixtures) was “gel” and the Gel test (PEG 400/H2O mixtures) was “gel”. For the same molecule, the Gel test (olive oil) was “gel” and the Gel test (toluene) was “gel”.
With `O=C(NCCOCCO)[C@@H]1C[C@H](C(=O)NCCOCCO)C[C@H](C(=O)N[C@@H](Cc2ccc(O)cc2)C(=O)Nc2ccc3ccccc3c2)C1` [Compound 24, CHex(AmTyrAmβNA)(AmEtOEtOH)2] the Gel test (1 mg/mL in H2O) was “clear gel”, the Gel test (EtOH) was “gel” and the Gel test (MeCN) was “gel”. The Gel test (olive oil) was “gelly precipitate”.
With `CCCCCCCCCCNC(=O)[C@H](Cc1ccccc1)NC(=O)[C@@H]1C[C@H](C(=O)O)C[C@H](C(=O)O)C1` [Compound 19, CHex(AmPheAmDecyl)(COOH)2] the Gel test (H2O, concentration not given) was “clear gel” and the Gel test (toluene) was “gel”.
In the case of `CC(C)C[C@H](NC(=O)[C@@H]1C[C@H](C(=O)O)C[C@H](C(=O)N[C@@H](CC(C)C)C(=O)Nc2ccc3ccccc3c2)C1)C(=O)Nc1ccc2ccccc2c1` [Compound 37, CHex(AmLeuAmβNA)2(COOH)], the Gel test (DMSO/H2O mixtures) was “gel”, the Gel test (H2O/MeOH mixtures) was “gel” and the Gel test (H2O/iPrOH mixtures) was “gel”. The Gel test (H2O/t-BuOH (TBA/H2O) mixtures) was “gel”.
With `O=C(N[C@@H](CO)C(=O)Nc1ccc2ccccc2c1)[C@@H]1C[C@H](C(=O)N[C@@H](CO)C(=O)Nc2ccc3ccccc3c2)C[C@H](C(=O)OCc2ccccc2)C1` [Compound 35, CHex(AmSerAmβNA)2(COOBn)] the Gel test (DMSO/CH2Cl2 mixtures) was “gel”, the Gel test (DMSO/EtOH mixtures) was “gel” and the Gel test (DMSO/MeCN mixtures) was “gel”. The Gel test (DMSO/MeOH mixtures) was “gel”, the Gel test (DMSO/toluene mixtures) was “gel” and the Gel test (EtOH) was “gel”. The Gel test (MeCN) was “gel”.
For `COc1ccc(NC(=O)[C@H](Cc2ccccc2)NC(=O)[C@@H]2C[C@H](C(=O)O)C[C@H](C(=O)O)C2)cc1` [Compound 9, CHex(AmPhe-AmPh-OMe)(COOH)2], the Gel test (3 mg/mL in H2O) was “clear gel”.
For `O=C(NCCOCCO)[C@@H]1C[C@H](C(=O)NCCOCCO)C[C@H](C(=O)N[C@@H](Cc2ccccc2)C(=O)Nc2ccc3ccccc3c2)C1` [Compound 2, CHex(AmPhe-AmβNA)(AmEtOEtOH)2], the Gel test (1 mg/mL in H2O) was “clear gel”.
